The structures appear in SMILES notation.

In test [1] the test system is LOLMU (Lolium multiflorum). Description: Activity against grass weeds, post-emergence spray in pots in controlled-environment cabinet, visual scoring. The test is classed as in vivo. The note with it: mesosulfuron-methyl 60 g a.i./ha (Silwet L77 50 g a.i./ha, sodium lactate 150 g a.i./ha where present); sprayed four weeks after sowing, water 300 l/ha; visual scoring 14 days after application, 0% = no damage to 100% = all plants dead. As to the method:
(§1) The individual components herbicide, surfactant and humectant as stated in Table 1 with regard to the application rates were added with stirring to a water application rate of 300 I/ha so that a homogeneous spray mixture was formed. The herbicide employed was mesosulfuron-methyl as 20 percent water-dispersible powder. The surfactant used was Silwet®L77 (Wacker) and the humectant used was sodium lactate as 50 percent aqueous solution (Merck KGaA, Darmstadt). Seeds of the harmful plants AVEFA and LOLMU were sown in a sandy loam soil in round pots type 13 in a controlled-environment cabinet and watered slightly. During the entire experiment period, the substrate only received minimal irrigation. A daytime temperature of 18° C. and a night time temperature of 16° C. were adhered to, a uniform day length of 16 hours being achieved by additional illumination with sodium vapor lamps (approx. 7000 lux). The relative atmospheric humidity was 50%. Four weeks after sowing, the plants were treated on a laboratory spray conveyor with the spray mixture which had been prepared in accordance with Example 1. The water application rate for the spray application of the preparations was 300 I/ha. After the treatment, the plants were returned to the controlled-environment cabinet. […]

For another test, the system named is AVEFA (Avena fatua). The test is described as above. The test is classed as in vivo. The note with it: mesosulfuron-methyl 60 g a.i./ha (Silwet L77 50 g a.i./ha, sodium lactate 150 g a.i./ha where present); sprayed four weeks after sowing, water 300 l/ha; visual scoring 14 days after application, 0% = no damage to 100% = all plants dead. As to the method:
as §1

As for `COC(=O)c1ccc(CNS(C)(=O)=O)cc1S(=O)(=O)NC(=O)Nc1nc(OC)cc(OC)n1` [Mesosulfuron, mesosulfuron-methyl], in test [1], the “Damage in % LOLMU” value is on record as 18%. In addition, the “Damage in % AVEFA” value in the test with AVEFA (Avena fatua) stood at 22%.

Source of the values: patent US20020072474A1, “Herbicidal compositions” (priority 2000, published 2002).
